From patent US7183068B2, “Methods of manufacturing glucose measuring assemblies with hydrogels” (Animas Technologies, LLC, priority 1999, dated 2007)
Several values for one entry are separate records, joined by “and”; a condition that tells them apart may be missing. Identical values can stand only once.

Legend:
[1] = Adsorption of Nipastat paraben components from hydrogel by mask layer, HPLC of gel extract; type: physicochemical; conditions: 48 Hours at 4° C.; for % Loss of Nipastat ® biocide from Gel: Gel + Mask versus Gel Control; for HPLC peak intensity of paraben extracted from hydrogel, Average: average of 5; for HPLC peak intensity of paraben extracted from hydrogel: individual samples 1-5
Description: (§1) Nipastat®-containing hydrogels were formulated with the appropriate buffer salts under standard conditions, from which samples were taken for analysis. […] The hydrogels were cut using a ¾ inch punch to generate the sample disks to assay. Each disk was added to 5 mL of acetonitrile/water (30% ACN, v/v) and the Nipastat® biocide was extracted for 1 hour while shaking on an orbital shaker at 100 rpm. The extract was then filtered through a 0.2 μm membrane prior to HPLC separation and UV detection at 254 nm.
(§2) Reverse phase HPLC chromatography was performed using a Waters 3.9 mm×15 cm Nova-Pak C-18 column (Milford, Mass.) operating at a flow rate of between about 1.0 to 2.0 mL/min. at 35° C. The eluent was monitored by UV at 254 nm using a Shimadzu SPD-10AU UV-Visible spectrometer (Kyoto, Japan). Samples 10 μL in volume were injected into the column equilibrated in 30% ACN in water, and the following 20-minute gradient program was performed: • 1. Initial time of injection: 30% ACN/70% water at a flow rate of 1 mL/min • 2. Linear Gradient from 30% ACN to 80% ACN for 9.0 minutes (1 mL/min) • 3. Linear Gradient from 80% ACN to 100% ACN for 0.5 minutes (1 mL/min) • 4. 100% ACN for 4.5 minutes (1 mL/min) • 5. Linear Gradient from 100% ACN to 30% ACN for 0.5 minutes at a flow rate of 2 mL/min • 6.30% ACN for 5.5 minutes at a flow rate of 1 mL/min
(§3) The HPLC profiles of the extracts were compared with that of a standard solution of known concentration comprising the p-hydroxybenzoate derivatives. The peak intensities of the experimental samples are compared to those of the standards to determine relative amounts of each extracted paraben.
(§4) Collection assemblies incorporating Nipastat® biocide-comprising hydrogels were assayed for retention of the biocide within the hydrogel. Samples of the hydrogel prior to and after incorporation into the collection assembly, as well as the components of the collection assembly in contact with the hydrogel, were prepared as described in Example 1.

[2] = Adsorption of Nipastat paraben components from hydrogel by gel retaining layer, HPLC of gel extract; type: physicochemical; conditions: 9 Days at 4° C.; for % Loss of Nipastat ® biocide from Gel: Gel + GRL versus Gel Control; for HPLC peak intensity of paraben extracted from hydrogel, Average: average of 5; for HPLC peak intensity of paraben extracted from hydrogel: individual samples 1-5
Description: as §1, §2, §3, §4

[3] = Response of sensing electrode to glucose, acetaminophen and uric acid in presence of biocide (percent recovery); conditions: preconditioned 10 minutes at 0.77V, 50 minutes at 0.42V
Source text: Two biocides were compared with respect to the effects their presence (within the ionically conductive medium) had on signal generation at the sensing element under three conditions: in the presence of glucose, glucose plus acetaminophen, and glucose plus uric acid. The Nipastat® biocide was shown in the examples above to form a permeation selective barrier at the reactive face of the sensor element. The second biocide tested, undecylenic acid, was not expected to polymerize under the iontophoretic conditions used during the functionality test as described in the previous example. The measured responses of the sensor elements are presented in Table 7, normalized to a control “background” response for each sensor element. As described in Example 5, the sensor electrodes were assembled with the collection insert layer containing the appropriate ionically conductive material (control, Nipastat® biocide, or undecylenic acid biocide) to form the autosensor assemblies. The autosensor assemblies were preconditioned for 10 minutes at 0.77V, followed by 50 minutes at 0.42V, after which the glucose solution (200 μM) plus or minus the interferant species was deposited onto the ionically conductive material, and the response of the sensor element measured from this time forward.

[4] = Adsorption of undecylenic acid from hydrogel into gel retaining layer, GC; type: physicochemical; conditions: Two Weeks at Room Temperature
Description: (§5) Collection assemblies incorporating sodium undecylenate-comprising hydrogels were assayed for retention of the biocide within the hydrogel. The presence of undecylenic acid in the hydrogel and assembly components was determined by gas chromatography (GC) using a Hewlett Packard (Avondale, Pa.) 5890 gas chromatogram equipped with an HP 3396A integrator. The hydrogels and collection assembly components were cut using a ¾ inch punch to generate the samples to assay. Each sample “disk” was added to 4 mL of 1M HCl, and the undecylenic acid was extracted for 2 hours while shaking on an orbital shaker at 150 rpm, followed by 10 minutes at 100 rpm. The sample disks were then extracted twice with 4 mL of ethyl acetate. Samples 1 μL in volume were injected into the GC and the results compared to that generated for a standard solution of undecylenic acid.

[5] = Loss of undecylenic acid from hydrogel, gel control, GC; type: physicochemical; conditions: Two Weeks at Room Temperature
Description: as §5

Candida albicans = assay: Modified USP antimicrobial preservative effectiveness test of hydrogels; type: cell-based; conditions: Candida albicans inoculation, 28 day period
Description: (§6) Nipastat® biocide and undecylenic acid were compared with respect to the effects their presence (within the ionically conductive medium) had on microbial growth over time. A modified USP antimicrobial preservative effectiveness test was performed, using Aspergillus niger, Candida albicans, Eschericia coli, Pseudomonas aeruginosa and Staphylococcus aureus. Separate portions of the two hydrogels were inoculated with a low concentration of one of the listed microorganisms, and recovery of the microorganism was determined over a period of 28 days. For this assay, the microorganisms were cultured, harvested and diluted to yield working suspensions of 2.0×10^3 to 2.0×10^4 colony forming units (CFUs)/sample.

Aspergillus niger = assay: as above; type: cell-based; conditions: Aspergillus niger inoculation, 28 day period
Description: as §6

Eschericia coli = assay: as above; type: cell-based; conditions: Eschericia coli inoculation, 28 day period
Description: as §6

Staphylococcus aureus = assay: as above; type: cell-based; conditions: Staphylococcus aureus inoculation, 28 day period
Description: as §6

Pseudomonas aeruginosa = assay: as above; type: cell-based; conditions: Pseudomonas aeruginosa inoculation, 28 day period
Description: as §6

[6] = Adsorption of undecylenic acid from hydrogel into mask layer, GC; type: physicochemical; conditions: Two Weeks at Room Temperature
Description: as §5

Compound	% Loss of Nipastat ® biocide from Gel [1]	HPLC peak intensity of paraben extracted from hydrogel, Average ([1]; Gel + Mask)	HPLC peak intensity of paraben extracted from hydrogel ([1]; Gel + Mask)	HPLC peak intensity of paraben extracted from hydrogel, Average ([1]; Gel Control)	HPLC peak intensity of paraben extracted from hydrogel ([1]; Gel Control)	% Loss of Nipastat ® biocide from Gel [2]	HPLC peak intensity of paraben extracted from hydrogel, Average ([2]; Gel + GRL)	HPLC peak intensity of paraben extracted from hydrogel ([2]; Gel + GRL)	HPLC peak intensity of paraben extracted from hydrogel, Average ([2]; Gel Control)	HPLC peak intensity of paraben extracted from hydrogel ([2]; Gel Control)	other results
CCCOC(=O)c1ccc(O)cc1 [Propyl, p-hydroxybenzoic acid propyl ester]	99.8%	50	0 (4×) and 252	24535	18744 and 22146 and 27621 and 25936 and 28226	58.5%	10873	4958 and 11465 and 9664 and 15618	26218	24034 and 30121 and 30407 and 24349 and 22180	–
COC(=O)c1ccc(O)cc1 [Methyl, p-hydroxybenzoic acid methyl ester]	96.1%	10075	5445 and 11776 and 13807 and 11268 and 8081	257019	199735 and 233495 and 282756 and 265561 and 303549	17.0%	231960	147682 and 239356 and 231307 and 251620 and 289836	279309	261836 and 315315 and 313086 and 256304 and 250006	–
C=CCCCCCCCCC(=O)O [undecylenic acid, 10-undecenoic acid]	–	–	–	–	–	–	–	–	–	–	formation of a permeation selective barrier impeding acetominophen and uric acid signal generation [3]: does not; % Loss for Gel + GRL, Average ([4]; average): 28.1%; % Loss for Gel + GRL ([4]; individual hydrogel samples): 37.0% and 28.4% and 22.2% and 24.7%; % Loss for Gel Control, Average ([5]; average): 62.4%; % Loss for Gel Control ([5]; individual hydrogel samples): 64.9% and 68.1% and 75.2% and 76.2% and 37.2% and 52.8%; biocide activity within the hydrogel: microbial count (Candida albicans): effective at reducing the microbial count; effectiveness compared between the two biocides (Candida albicans): equally effective; biocide activity within the hydrogel: microbial count (Aspergillus niger): effective at reducing the microbial count; effectiveness compared between the two biocides (Aspergillus niger): more effective than the Nipastat® biocide; biocide activity within the hydrogel: microbial count (Eschericia coli): effective at reducing the microbial count; effectiveness compared between the two biocides (Eschericia coli): equally effective; biocide activity within the hydrogel: microbial count (Staphylococcus aureus): effective at reducing the microbial count; effectiveness compared between the two biocides (Staphylococcus aureus): more effective than the Nipastat® biocide; biocide activity within the hydrogel: microbial count (Pseudomonas aeruginosa): effective at reducing the microbial count; effectiveness compared between the two biocides (Pseudomonas aeruginosa): more effective than the Nipastat® biocide; % Loss for Gel + Mask Layer, Average ([6]; average): 73.1%; % Loss for Gel + Mask Layer ([6]; individual hydrogel samples): 73.3% and 68.5% and 78.2% and 72.5%
p-hydroxybenzoic acid butyl esters	99.9%	87	0 (4×) and 436	–	50220	–	–	–	–	–	–
CCOC(=O)c1ccc(O)cc1 [Ethyl, p-hydroxybenzoic acid ethyl ester]	99.9%	57	0 (4×) and 285	63573	43754 and 52495 and 93771 and 58684 and 69162	34.2%	40848	23429 and 43116 and 38410 and 46214 and 53073	62118	58534 and 68190 and 70588 and 56529 and 56747	–
